{"source": "patent US20250295646A1", "about": "“METHODS OF USE OF T-TYPE CALCIUM CHANNEL MODULATORS” (Praxis Precision Medicines, Inc., priority 2022, published 2025)", "origin": "cited, not measured here", "conditions": "WO 2020/072773, cited from earlier work", "data": [{"smiles": "CC(C)c1ccc(CC(=O)N[C@H](C)c2ccc(OCC(F)(F)F)cn2)cc1", "note": "[CX-8998]", "values": [{"measurement": "discontinuation due to intolerability of adverse events", "setting": "28-day essential tremor study", "value": 17, "unit": "%"}, {"measurement": "discontinuation rate", "setting": "28-day essential tremor study", "value": 23, "unit": "%"}, {"measurement": "tolerability of doses of 20 and 24 mg", "value": "less well tolerated"}, {"measurement": "single doses generally well tolerated", "setting": "non-titrated", "value": "up to 16 mg"}]}]}
